Results on 133 compounds are retold here after the SangsterLogP compilation.

SMILES strings stand for the structures.

One series in a line: method code SF, from Hansch, C. & Leo, A. (1987). Log P database [Dataset]. Pomona College Medicinal Chemistry Project.
Conditions: not given
`NCCc1c[nH]c2ccc(O)cc12` yielded a logP of 0.21.

Compound `CN(C)C(=O)Cc1ccsc1` returned a logP of 0.65.

`CCC(C)C(=O)Nc1ccccc1` (stereo not drawn): the logP turned out to be 2.56.

`CCOC(=O)NC(O)C(Cl)(Cl)Cl` (stereo not drawn) had a logP of 1.84.

`CCOC(N)=O` showed a logP of -0.15.

In turn, `O=C1OC(O)c2ccccc21` (stereo not drawn) registered a logP of 0.57.

In turn, `CCOC(=O)C(C#N)=Cc1ccccc1` had a logP of 2.43.

On to `c1ccc2[nH]c(CCCCCCc3nc4ccccc4[nH]3)nc2c1`, for which the logP is 1.66.

As to `CCCS`, the logP was found to be 1.81.

`CC1=Nc2ccc(C)cc2S(=O)(=O)N1`: the logP amounted to 0.81.

Consider `CNC(=O)Oc1cc(Cl)ccc1Cl`, for which the logP was determined as 2.44.

For `S=C=Nc1ccccc1`, the logP stood at 3.25.

As for `FC(F)(F)c1ccccc1`, the logP came to 2.9.

As for `O=C(Nc1ccccc1)Oc1ccccc1`, the logP worked out at 3.3.

`O=C(Nc1ccc(Cl)c(Cl)c1)C1CCCCC1` gave a logP of 4.72.

`COC(=O)C(=Cc1ccccc1)C(=O)OC` displayed a logP of 2.24.

In the case of `CCC(=O)O[C@]1(C(=O)CO)[C@H](C)C[C@H]2[C@@H]3C[C@H](F)C4=CC(=O)C(Cl)=C[C@]4(C)[C@@]3(F)[C@@H](O)C[C@@]21C`, the logP came out at 2.99.

With `N#CN=[N+]([O-])c1ccc(Br)cc1`, the logP stood at 2.5.

In turn, `CNC(=S)NC` showed a logP of -0.24.

With `CCC=O`, the logP turned out to be 0.59.

Turning to `O=C(O)Cc1c[nH]c2ccccc12`, the logP came out at 1.41.

`N#CSc1ccccc1`: the logP was found to be 2.54.

`CN(C)c1cnccn1`: the logP came out at 0.96.

Compound `NC(=O)c1cccs1` displayed a logP of 0.52.

Consider `O=[N+]([O-])c1cc[n+]([O-])cc1`, for which the logP was -0.55.

`NC(=O)C(=Cc1cccc(F)c1)C(N)=O`: the logP was determined as 0.1.

`O=c1cc(-c2ccc(O)cc2)oc2ccccc12` registered a logP of 3.2.

For the compound `O=NN(Cc1ccccc1)c1ccccc1`, the logP is 3.38.

Take `c1cnc2nccnc2c1`: the lipophilicity (logP) was -0.04.

With `O=C(C(=O)c1ccco1)c1ccco1`, the logP is 1.24.

Consider `CSc1ccc(NC(C)=O)cc1`, for which the logP turned out to be 2.03.

Regarding `CN(C)C(=O)Nc1ccc(C(C)(C)C)cc1`, the log partition coefficient (logP) was 3.1.

Compound `c1cn[nH]n1` registered a logP of -0.29.

`CCN(CC)c1ccc(NC(=O)N(C)OC)cc1` had a logP of 2.33.

The compound `O=S1(=O)NC(C2CCC2)=Nc2ccc(Cl)cc21` returned a log partition coefficient (logP) of 2.24.

As for `COc1cc(OC)c(OC)cc1CC(C)N` (stereo not drawn), the logP stood at 1.74.

In turn, `COc1ccccc1C=C(C(C)=O)C(C)=O` returned a logP of 1.73.

`CCOC(=O)C(=Cc1cccc(OC)c1)C(C)=O` had a logP of 2.34.

`CCc1ccco1` yielded a logP of 2.4.

The compound `O=[N+]([O-])c1ccc(C(F)(F)F)cc1` gave a logP of 2.55. This logP and that of the compound before are within 0.2 log units of each other.

The compound `CC(=O)Nc1ccccc1Br` returned a logP of 1.4.

The compound `O=S1(=O)NC(Cc2ccccc2)=Nc2ccccc21` came in with a logP of 1.89.

Turning to `O=CC=Cc1ccco1`, the logP is 1.15.

`CC(C)(C)C(=O)Nc1ccccc1` displayed a logP of 1.99.

As for `CCOC(=Cc1ccccc1)C(=O)NC(C)CC` (stereo not drawn), the logP was 3.2.

In the case of `CC(=C(C#N)C#N)c1ccccc1`, the logP came to 2.1.

Compound `OC(c1ccccc1)(c1ccccc1)c1ccccc1` gave a lipophilicity (logP) of 3.68.

Take `CCOCCOC(=O)C(C#N)=CC(C)(C)NCc1ccc(Cl)cc1`: the logP stood at 4.05.

For `OC(C1CO1)C(O)C1CO1` (stereo not drawn), the logP is -1.29.

`CCOC(=O)C(=Cc1ccc([N+](=O)[O-])cc1)C(=O)OCC`: the logP was 3.03.

For the compound `CC1CO1` (stereo not drawn), the logP stood at 0.03.

With `CCOP(=S)(OCC)Oc1ncn(-c2ccccc2)n1`, the lipophilicity (logP) turned out to be 3.55.

With `O=NN(CCCl)C(=O)NC1CCC(O)CC1` (stereo not drawn), the logP is 1.11.

In the case of `CCOC(=O)C(=Cc1ccc(Br)cc1)C(=O)OCC`, the logP turned out to be 4.02.

In turn, `NC(N)=Nc1ccccc1` yielded a logP of 0.53.

`COc1cc(C=NOC(=O)c2ccccc2OC)ccc1OCCO` registered a logP of 2.84.

Regarding `CN(C)C(=O)/C=C/c1ccccc1`, the logP turned out to be 1.73.

With `CCOC(=O)c1cccnc1`, the logP was determined as 1.34.

`Cc1cccc(/N=N/N(C)C)c1`: the logP worked out at 2.85.

Consider `CCOC(=O)C(=Cc1ccc(OC)c(OC)c1)C(=O)OCC`, for which the logP stood at 2.89.

Compound `COc1ccc(C=C(C(C)=O)C(C)=O)c(OC)c1` yielded a logP of 1.88.

For the compound `O=C(O)c1ccncc1`, the logP is -0.57.

For `O=CNc1ccccc1`, the logP was 1.2.

Turning to `O=c1[nH]cc(Br)c(=O)[nH]1`, the logP is -0.21.

`CCOC(=O)CON=Cc1ccc(OCCOC(=O)c2ccccc2OC)c(OC)c1` yielded a log partition coefficient (logP) of 3.27.

`O=CNc1nccs1` showed a logP of 0.54.

Consider `COc1ccccc1OC(C)=O`, for which the logP came to 1.38.

As to `CC1=Nc2cc(N)c(Cl)cc2S(=O)(=O)N1`, the logP worked out at 0.63.

With `COc1ccccc1C(=O)c1ccncc1`, the logP is 1.86.

For `CCSC(=Cc1ccccc1)C(=O)NC(C)CC` (stereo not drawn), the logP worked out at 3.4.

Consider `S=C(Nc1ccccc1)c1ccccc1`, for which the logP was determined as 3.03.

With `CCc1ccc2c(c1)N=C(C)NS2(=O)=O`, the logP stood at 1.25.

Regarding `CC(=O)Oc1ccccc1Cl`, the logP is 2.18.

Regarding `Cc1cc(COc2ccccc2C(C)C)c(O)c(C(=O)O)c1`, the logP worked out at 4.91.

In the case of `CNC(=O)N(C)c1ccccc1`, the logP is 1.02.

The compound `C1=CCOC1` yielded a logP of 0.46.

Regarding `O=c1cnc2ccccc2[nH]1`, the lipophilicity (logP) was 0.8.

`O=C1C(=O)c2cccc3cccc1c23` had a logP of 1.95.

`NC(=O)Nc1ccc(C(O)C(CO)NC(=O)C(Cl)Cl)cc1` (stereo not drawn) displayed a logP of -0.6.

On to `Nc1cccc([N+](=O)[O-])c1N`, for which the logP was found to be 1.27.

Take `C1=Cc2ccccc2C1`: the logP came to 2.92.

In turn, `O=C(COc1ccccc1)Nc1ccccc1` came in with a logP of 2.73. This logP and that of the compound before are within 0.2 log units of each other.

`O=C(O)COc1ccccc1O` had a logP of 0.85.

Regarding `Cc1c(Cl)c(Cl)c(Cl)c(Cl)c1Cl`, the logP was found to be 5.62.

`O=[N+]([O-])c1ccc2[nH]c(CCc3nc4cc([N+](=O)[O-])ccc4[nH]3)nc2c1` yielded a logP of 1.29.

The compound `O=[N+]([O-])c1ccc2[nH]c(CCCCc3nc4cc([N+](=O)[O-])ccc4[nH]3)nc2c1` returned a logP of 2.45.

In turn, `CC1=Nc2cc(Cl)ccc2S(=O)(=O)N1` had a logP of 1.21.

`O=C(Cc1ccccc1)Nc1ccc(Cl)c(Cl)c1`: the logP stood at 4.47.

For the compound `CCOP(=O)(OCC)SCSCC`, the logP amounted to 2.07.

The compound `O=C1OC2(CCCC2)c2ccccc21` returned a logP of 2.56.

`CCC(=O)OCCOc1ccc(C=NO)cc1OC` showed a logP of 1.52.

On to `O=C(NCc1ccccc1)c1ccco1`, for which the logP was determined as 1.81.

In turn, `CCOC(=O)CC(=O)C=Cc1ccc(C)cc1` gave a logP of 2.63.

Turning to `Cc1ccc2cccnc2c1`, the logP stood at 2.47.

In the case of `Cc1c(C2(c3cc(C(C)C)c(O)c(Br)c3C)OS(=O)(=O)c3ccccc32)cc(C(C)C)c(O)c1Br`, the logP amounted to 2.78.

Turning to `O=C(CCl)Nc1ccccc1`, the logP amounted to 1.63.

As to `O=C(NO)c1ccccc1`, the logP was found to be 0.26.

With `O=C(O)c1ccco1`, the logP was 0.64.

`CNc1ccc(S(=O)(=O)N(C)C)cc1` showed a logP of 1.43.

Compound `CCC(C)NC(=O)C(=Cc1ccccc1)c1ccccc1` (stereo not drawn) returned a logP of 4.05.

Regarding `CC(=O)Nc1ccc(C(C)=O)cc1`, the lipophilicity (logP) came out at 1.24.

Consider `Cc1ccccc1OC(=O)N(C)C`, for which the logP stood at 1.86.

As to `CCOC(=O)CON=Cc1ccc(OCCOC(=O)CC)c(OC)c1`, the logP was determined as 2.39.

Turning to `O=C(O)c1cccc(CSc2ccccc2)c1O`, the logP stood at 4.28.

For `CCOC(=O)C(=Cc1ccccc1F)C(=O)OCC`, the logP is 3.04.

For the compound `N#CC(Cl)(Cl)Cl`, the logP turned out to be 2.09.

Take `CCC(C)NC(=O)/C(Br)=C\c1ccccc1` (stereo not drawn): the logP was determined as 3.56.

In turn, `CCCCCC1(CC)C(=O)NC(=O)NC1=O` returned a logP of 2.24.

For `O=C(c1ccncc1)c1ccc(O)cc1`, the logP was 1.37.

Take `CN(Cc1ccc([N+](=O)[O-])cc1)/N=N/c1ccc(C(=O)O)cc1`: the logP was found to be 4.03.

On to `N#CCc1ccsc1`, for which the logP worked out at 1.26.

Regarding `Cc1ccsc1`, the lipophilicity (logP) is 2.34.

`CCC(C)NC(=O)/C(Cl)=C\c1ccccc1` (stereo not drawn) displayed a logP of 3.52.

For the compound `COC1C=COC2(C)Oc3c(C)c(O)c4c(O)c(c(/C=N\N5CCCCCCCCCC5)c(O)c4c3C2=O)NC(=O)/C(C)=C\C=C/C(C)C(O)C(C)C(O)C(C)C(OC(C)=O)C1C` (stereo not drawn), the logP was determined as 4.05.

`C=CCc1cccc2c(=O)c(C)c(-c3ccccc3)oc12` gave a logP of 4.67.

`[N-]=[N+]=Nc1ccccc1` yielded a logP of 2.59.

`OCCOCCN1CCN(CCCN2c3ccccc3Sc3ccc(C(F)(F)F)cc32)CC1` returned a logP of 4.49.

In the case of `C=CC=C`, the logP turned out to be 1.99.

Still in this series, the particulars now being: pH 1.0.
`O=C(O)C(c1ccccc1)c1ccccc1` came in with a logD of 3.09.

As to `O=C(O)C(CO)c1ccccc1` (stereo not drawn), the logD was found to be 0.77.

Staying with this series, now noted: pH 2.0.
Consider `O=C(O)c1nccc2ccccc12`, for which the logD is -0.53.

Staying with this series, now noted: pH 4.6.
`CCN(CC)/N=N/c1nc[nH]c1C(N)=O` had a logD of 0.78.

Staying with this series, now noted: pH 7.0.
As for `COc1cccc(S(C)(=O)=O)c1`, the logD came out at 0.86.

In turn, `CC(=O)c1cccc(C#N)c1` displayed a logD of 1.16.

`CC(=O)c1cccc(C(C)=O)c1` registered a logD of 1.43.

For `CNc1ncnc2ccsc12`, the logD came to 1.43.

In turn, `CS(=O)(=O)c1cccc([N+](=O)[O-])c1` had a logD of 0.5.

The same series, now with this note: pH 7.3.
`Nc1ncnc2nc(-c3cccc([N+](=O)[O-])c3)[nH]c12` showed a logD of 1.93.

The same series, now with this note: pH 7.4.
The compound `Cc1c(N(C)C)c(=O)n(-c2ccccc2)c(=O)n1C` gave a logD of 1.3.

The same series, now with this note: pH 8.0.
For the compound `O=C(c1ccccc1)c1cccnc1`, the logD came out at 1.88.

Staying with this series, now noted: pH 11.0.
Compound `CNC=CCCc1cccnc1` came in with a logD of 1.13.

In the case of `CN(C)CCCCc1cccnc1`, the logD was 1.49.

The same series, now with this note: pH 13.0.
Compound `CCCCN(CCCC)CC(O)c1ccccc1` (stereo not drawn) yielded a logD of 3.16.
